Assay results published in US6441029B1, “Method of suppressing tumor growth with combinations of isoprenoids and statins” (Wisconsin Alumni Research Foundation, priority 1997, dated 2002).
Where “and” joins values, the source holds several entries; their conditions need not be identical. Equal values may be shown once. Read-outs that look alike come from different tables or passages of the source. Marks after values point to notes of the source that are not given here.

Experiments:
B16 melanoma cells = test: Paired isoprenoids, 48 hour cell count (FIG. 2A, 2B); assay type: cell-based, Murine
Method: (§1) Cultures, seeded with 1-1.5×10^5 cells, were incubated for 24 hours at 37° C. in a humidified atmosphere of 5% CO2. Isoprenoids, dissolved in absolute ethanol, were added at 24 hours (0 time); all cultures contained 5 mL ethanol/L ([…]). The cultures were incubated for an additional 48 hours. The media was removed and the monolayers were washed twice with Hanks' Balanced Salt Solution (Sigma) and then incubated with a trypsin-EDTA solution (Sigma) at 37° C. for 2 minutes. Trypsin was inactivated by suspending the cells in medium containing 10% fetal bovine serum (Sigma). The cells were pelleted at 250×g and resuspended in Hanks' Balanced Salt Solution. Viable cells, cells that excluded 0.4% trypan blue (GIPCOBRL), were counted with a hemocytometer; 24 hour cell counts were deducted from final cell counts to provide an estimate of the net increase in cell number.
We next determined that the effects of the isoprenoids on the growth of B16 melanoma cells in culture are additive, and in some cases, synergistic. FIG. 2A illustrates the additive effects of γ-tocotrienol and β-ionone on B16 melanoma cell populations. Values are means±SD, n=28; pooled SEM=36 (×10^4). Cell counts calculated to show the decreased population relative to the control are listed on the insert table.
FIG. 2B illustrates the additive effects of carvacrol and β-ionone on B16 melanoma cell populations. Values are means±SD, n=28; pooled SEM=62 (×10^4). Cell counts calculated to show the decreased population relative to the control are listed in the inset table. ^a-hMeans not sharing a superscript (a>b>c>d>e>f>g>h) are different (P<0.001). Referring to FIG. 2, B16 melanoma cells were incubated with β-ionone and d-γ-tocotrienol in one test (FIG. 2A). d-γ-Tocotrienol (7.5 μmol/L) and β-ionone (50 μmol/L) reduced the 48 hour cell count by 19% and 10% respectively (FIG. 2A). The 34% reduction in cell number achieved with the paired isoprenoids exceeded the 29% reduction predicted by the sum of the individual effects (FIG. 2A, inset). At higher concentrations d-γ-tocotrienol (15 μmol/L) and β-ionone (100 μmol/L) reduced the 48 hour cell count by 34% and […] respectively; the additive effect, a 68% reduction in cell number, was also greater than the sum of the individual effects (59%) (FIG. 2A, inset).
Carvacrol (50 μmol/L) and β-ionone (75 μmol/L) reduced the 48 hour cell count by 25% and 31% respectively; the additive effect, a 48% reduction in cell number, was less than the 56% reduction predicted by the sum of the individual effects. Carvacrol (100 μmol/L) and β-ionone (150 μmol/L) reduced the cell count by 35% and 65% respectively; the additive effect, an 84% reduction in cell number, again was less than the 100% reduction predicted by the sum the individual effects (FIG. 2B, inset). The reduction in cell number predicted by the sum of the individual effects of the isoprenoids was highly correlated with that achieved with the paired isoprenoids (r=0.91, n=8, P<0.01).

[1] = system: murine melanoma B16/F10 cells; test: In vitro growth assays of lovastatin, β-ionone and γ-tocotrienol alone and combined (Table 5); assay type: cell-based
[2] = system: implanted murine melanoma B16F10 tumors; conditions: cited from earlier work
[3] = system: Murine B16(F10) melanoma cells; conditions: L. He, et al., J. Nutr. 1997; read-out: IC50, proliferation of murine melanoma B16/F10 cells; cited from earlier work
[4] = system: established implanted B16 melanoma; test: Experiment 2: isoprenoid-enriched diets, survival of mice bearing established melanomas; assay type: in vivo, C57BL female mice; conditions: for Days survival, Mean / Days survival, Median: n = 12; for growth of established B16 melanomas: diet providing 7 μmol/d; for duration of host survival: experimental diets versus control, P<0.03
Method: Where noted, β-ionone was added to the oil. The diets, mixed weekly, were stored under refrigeration. Food cups were cleaned and refilled daily.
Experiment 2: Weanling female C57BL female mice (n=60, Harlan Sprague-Dawley) were acclimated to the housing conditions and AIN-76A diet (116 μmol dl-α-tocopherol/kg diet) as described above. Tumors were implanted and the mice continued to receive the AIN-76A diet. Beginning on day 8 post-implant the mice were palpated daily for the presence of a tumor. Tumors were first detected on day 14. Random numbers were generated for assigning each mouse in a sequential subset of five to a diet. Experimental treatments provided 2 and 4 mmol d-γ-tocotrienol/kg diet. We additionally tested the impact of β-ionone (2 mmol β-ionone/kg AIN-76A diet) and that of a blend of the two isoprenoids (2 mmol each/kg diet) on the survival of the mice.
We then asked if either dietary d-γ-tocotrienol or β-ionone would prolong the survival of mice bearing implanted melanomas. Dietary treatments were initiated following the detection of solid tumors. We also asked whether these structurally diverse isoprenoids would have an additive effect on survival. The experimental groups were constructed by random assignment of each member of successive subsets of 5 mice to one of the experimental diets. […] Treatments increased median duration of survival by 42±4.5% and the mean duration of survival by 30% (P<0.005); differences between duration of survival means of the experimental groups were not significant (Table 3, FIG. 3). FIG. 3 is a survival curve for host mice receiving isoprenoid-enriched diets following the detection of a solid implanted B16 melanoma. Mean survival durations are presented on Table 4. β-ionone and γ-tocotrienol^1 treatments provided 2 mmol of the isoprenoid/kg diet; the blend provided 2 mmol of each isoprenoid/kg diet; and γ-tocotrienol^2 provided 4 mmol γ-tocotrienol/kg diet.

[5] = system: Murine B16(F10) melanoma cells; test: IC50 determinations: net increase in 48 hour melanoma cell count; assay type: cell-based
Method: as §1
FIG. 1 is a representative evaluation of the dose-dependent impact of five different tocols on the proliferation of melanoma B16 cells. Cultures (3 mL) seeded with 1-1.5×10^5 cells were incubated for 24 hours prior to the introduction of the tocols. Viable cells were counted at 48 hours following the addition of the tocols. The cell count at 24 hours (0 time) is shown by the dashed line. The intersection of the solid horizontal line and the line plotted for each tocol indicates the concentration at which the tocol suppressed by 50% the increase in cell number during the incubation (IC50 value). IC50 values (mean, SD and n) for all isoprenoids tested are listed on Table 1. […] The growth-suppressive potency of the individual tocotrienols was inverse to the number of methyl groups on the 6-chromanol ring: d-α-tocotrienol (methyl groups at carbons 5, 7, 8 and 2)<<d-γ-tocotrienol (methyl groups at carbons 7, 8 and 2)<d-δ-tocotrienol (methyl groups at carbons 8 and 2)<<d-2-desmethyl tocotrienol (no methyl groups) (Table 1).

B16(F10) melanoma = conditions: for retardation in tumor growth: 10 days prior to and 28 days following implantation, P<0.05
Method: The first examined the impact of a diet-relevant intake of d-γ-tocotrienol on the growth of B16(F10) melanomas in host mice. […] We first prepared a basal diet mix, patterned after the AIN-76A formulation (American Institute of Nutrition, 1977) but free of corn oil and dl-α-tocopherol. These ingredients and Vitamin E-stripped corn oil were purchased from Teklad Test Diets, Madison, Wis. Stock solutions of dl-α-tocopherol (80 μmol/g) and d-γ-tocotrienol (80 μmol/g) were prepared with vitamin E-stripped corn oil. Stock solutions of the tocols, diluted with vitamin E-stripped corn oil, were mixed with the basal diet to provide finished diets containing 5% corn oil and specified tocol concentrations. Where noted, β-ionone was added to the oil. The diets, mixed weekly, were stored under refrigeration. Food cups were cleaned and refilled daily.
Experiment 1: Weanling C57BL female mice (Harlan-Sprague Dawley, Madison, Wis.) were housed in groups of four on wood shavings in plastic cages and maintained at 25° C. with a 12 hour light-dark cycle. The four groups of mice (20/group) were fed experimental diets for 10 days prior to and for 28 days following the implantation of B16 melanoma cells. The split plot design consisted of four treatments comprised of two tocols, dl-α-tocopherol and d-γ-tocotrienol, each presented at two levels, 116 and 924 μmol/kg diet. This design permitted two comparisons of diets equal in tocol content and one comparison of diets about equal in d-α-tocopherol equivalents. […] We then corrected for the biological activity of the dl-α-tocopherol mixture (70% of the activity of d-α-tocopherol) in arriving at the 8:1 tocotrienol/tocopherol ratio used in formulating the experimental diets. Melanoma cells, cultured and harvested as previously, described (Shoff, et al., 1991), were washed twice with RPMI 1640 containing 10% Fetal Bovine Sera (GIBCOBRL). The pelleted cells were suspended in RPMI 1640 and counted (98% viable) after a 1:20 dilution in 0.4% trypan blue. The cells were further diluted in RPMI 1640 (1×10^8 cells/L) and 0.1 mL of the suspension (1×10^4 cells) was injected subcutaneously into the flank of each mouse. […] The mice were killed by CO2 overdose and the tumors were excised and weighed.
Statistical Methods: StatView and SuperANOVA software (Abacus Concepts, Berkeley, Calif.) were used for the assessment of treatment-mediated effects. Treatment-mediated differences in body and tumor weights, days to tumor appearance and days to morbidity were identified with split plot analysis of variance and pairwise t-tests of least squares means. Treatment-mediated differences in days to morbidity were also assessed using parametric (paired t-test) and nonparametric (Wilcoxon signed rank) tests (Haycock, et al., 1992).
The first dietary study evaluated the impact of d-γ-tocotrienol and dl-α-tocopherol on days to detection of a solid tumor and growth of implanted B16 melanomas.

[6] = cited from earlier work
[7] = up to 80 mg/d, five-year follow-up of 745 patients (14 observed, 21 predicted); cited from earlier work
implanted 216 melanomas = conditions: massive intake, 733 μmol/d; Meadows, et al., 1991; cited from earlier work

CC(=O)C=CC1=C(C)CCCC1(C)C [β-Ionone]
reduction of 48 hour cell count (B16 melanoma cells; 50 μmol/L): 10% | reduction of 48 hour cell count (B16 melanoma cells; 75 μmol/L): 31% | reduction of 48 hour cell count (B16 melanoma cells; 100 μmol/L): 16% | reduction of 48 hour cell count (B16 melanoma cells; 150 μmol/L): 65% | Growth ([1]; 50 μmol/L): 90 % of Control | Growth ([1]; 100 μmol/L): 84 % of Control | decrease in cell growth ([1]; 150 μM): 32% | Growth ([1]; 150 μmol/L): 68 % of Control | growth of implanted murine melanoma B16F10 tumors ([2]; 2 mmol/kg diet): suppressed | IC50 [3]: 140 µM | Days survival, Mean ([4]; 2 mmol/kg diet): 18.27^a Days | Days survival, Median ([4]; 2 mmol/kg diet): 23.0 days | growth of established B16 melanomas [4]: suppressed | duration of host survival [4]: significantly increased | IC50 ([5]; 48 hour incubation; means ± SD; read-out: IC50: concentration required to suppress the increase in the population of melanoma cells by 50% during a 48 hour incubation): 140 ± 23 µM

CC(C)=CCCC(C)=CCCC(C)=CCCC1(C)CCc2cc(O)c(C)c(C)c2O1 (stereo not drawn) [d-γ-Tocotrienol, 2,7,8-trimethyl-2-(4,8,12-trimethyltrideca-3,7,11-trienyl)-chroman-6-ol]
reduction of 48 hour cell count (B16 melanoma cells; 7.5 μmol/L): 19% | reduction of 48 hour cell count (B16 melanoma cells; 15 μmol/L): 34% | Growth ([1]; 5 μmol/L): 90 % of Control | Growth ([1]; 7.5 μmol/L): 81 % of Control | Growth ([1]; 10 μmol/L): 85 % of Control and 72 % of Control | Growth ([1]; 15 μmol/L): 66 % of Control and 77 % of Control | Growth ([1]; 20 μmol/L): 65 % of Control | growth of implanted murine melanoma B16F10 tumors ([2]; 116-2000 μmol/kg diet): suppressed | retardation in tumor growth (B16(F10) melanoma; 116 μmol/kg diet, isomolar substitution for dl-α-tocopherol in AIN-76A diet): 36% | retardation in tumor growth (B16(F10) melanoma; 928 μmol/kg diet, Vitamin E-equivalent substitution for dl-α-tocopherol in AIN-76A diet): 50% | days post-implant to tumor detection (B16(F10) melanoma; 928 μmol/kg diet, least mean squares analysis): differed significantly from the effects of the other treatments | 28 day tumor weight, least mean squares analyses (B16(F10) melanoma; 116 and 928 μmol/kg diet): tumor growth-suppressive action | growth of the B16 melanoma implanted in the flank of host mice (B16(F10) melanoma; diet providing an intake of 0.4 μmol/d (diet-relevant intake)): suppressed | suppression of tumor growth (B16(F10) melanoma; diet providing only the d-α-tocopherol-equivalent of the AIN-76A diet): highly significant suppression | IC50 [3]: 20 µM | further change in duration of survival on doubling the intake ([4]; 14 μmol/d versus 7 μmol/d, P=0.95): -0.21 days | Days survival, Mean ([4]; 2 mmol/kg diet): 18.67^a Days | Days survival, Median ([4]; 2 mmol/kg diet): 20.0 days | Days survival, Mean ([4]; 4 mmol/kg diet): 18.46^a Days | Days survival, Median ([4]; 4 mmol/kg diet): 22.0 days | growth of established B16 melanomas [4]: suppressed | increase in duration of survival ([4]; diet providing an intake of 7 μmol/d): 35% | duration of host survival [4]: significantly increased | IC50 ([5]; read-out: IC50: concentration required to suppress the increase in the population of melanoma cells by 50% during a 48 hour incubation; 48 hour incubation; means ± SD): 20 µM

CC[C@H](C)C(=O)O[C@H]1C[C@@H](C)C=C2C=C[C@H](C)[C@H](CC[C@@H]3C[C@@H](O)CC(=O)O3)[C@H]21 [Lovastatin, [1S[1a(R),3α,7β,8β(2S,4S),8aβ]]-1,2,3,7,8,8a-hexahydro-3,7-dimethyl-8-[2-(tetrahydro-4-hydroxy-6-oxo-2H-pyran-2-yl)ethyl]-1-maphthalenyl-2-methylbutanoate, reference compound]
dose level at which the incidence and severity of toxicity increased markedly ([6]; Phase I, 7-day courses given monthly, doses 2 to 45 mg/kg): 25 mg/kg | total episodes of toxicity ([6]; sixty of 88 patients): 128 episodes | reduction in cancer incidence [7]: 33% | Growth ([1]; 1.5 μmol/L): 71 % of Control | decrease in cell growth ([1]; 2 μM): 50% | Growth ([1]; 2 μmol/L): 50 % of Control and 60 % of Control | Growth ([1]; 2 μmol/L, listed as lovastatin): 50 % of Control | Growth ([1]; 3 μmol/L): 53 % of Control | growth rate relative to controls ([1]; 1.9±0.3 μmol/l, protocol of He, et al.): 61.4±4.6 % the rate of controls | growth of implanted murine melanoma B16F10 tumors ([2]; 50 mg/kg administered ip on alternate days): suppressed

O=C1O[C@H]([C@@H](O)CO)C(O)=C1O [ascorbic acid]
growth of implanted melanomas (implanted 216 melanomas): suppressed
